Molecules are shown by their SMILES. Read-outs that look alike come from different tables or passages of the source.

The subject of one data set is Alternaria solani. Put plainly: Alternaria test (tomato)/protective. It counts as in vivo. On the procedure: (§1) Solvent: 49 parts by weight of N,N-dimethylformamide
(§2) Emulsifier: 1 part by weight of alkylaryl polyglycol ether
To produce a suitable preparation of active compound, 1 part by weight of active compound is mixed with the stated amounts of solvent and emulsifier, and the concentrate is diluted with water to the desired concentration.
To test for protective activity, young tomato plants are sprayed with the active compound preparation at the stated application rate. 1 day after the treatment, the plants are inoculated with a spore suspension of Alternaria solani and then remain at 100% rel. humidity and 22° C. for 24 h. The plants then remain at 96% rel. atmospheric humidity and a temperature of 20° C.
(§3) Evaluation is carried out 7 days after the inoculation. 0% means an efficacy which corresponds to that of the control, whereas an efficacy of 100% means that no infection is observed.

The next data set deals with Botrytis cinerea. Put plainly: Botrytis test (bean)/protective. It counts as in vivo. The conditions noted are these: 100 ppm active compound, protective, evaluation 2 days after inoculation. On the procedure:
(§4) Solvents: 24.5 parts by weight of acetone
(§5) • 24.5 parts by weight of dimethylacetamide Emulsifier: 1 part by weight of alkylaryl polyglycol ether
(§6) To produce a suitable preparation of active compound, 1 part by weight of active compound is mixed with the stated amounts of solvents and emulsifier, and the concentrate is diluted with water to the desired concentration.
To test for protective activity, young plants are sprayed with the active compound preparation at the stated application rate. After the spray coating has dried on, 2 small pieces of agar colonized by Botrytis cinerea are placed onto each leaf. The inoculated plants are placed in a dark chamber at about 20° C. and 100% relative atmospheric humidity.
2 days after the inoculation, the size of the infected areas on the leaves is evaluated. 0% means an efficacy which corresponds to that of the control, whereas an efficacy of 100% means that no infection is observed.

A further data set has as its system Pyrenophora teres. Description: Pyrenophora teres test (barley)/protective. It counts as in vivo. In outline: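 Efficacy, read 7-9 days after spore inoculation, runs from 0% (equal to untreated control) to 100% (no infection). Barley sprayed with water-diluted DMF/emulsifier formulation was inoculated one day later, incubated 48 h at 22° C. and 100% rel. humidity, then held at 20° C. and 80% humidity.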

The subject of another data set is Uromyces appendiculatus. Description: Uromyces test (bean)/protective. The class given is in vivo. The following applies: in vivo. How it is done:
as §4, §5, §6
To test for protective activity, young plants are sprayed with the active compound preparation at the stated application rate. After the spray coating has dried on, the plants are inoculated with an aqueous spore suspension of the bean rust pathogen Uromyces appendiculatus and then remain in an incubation cabin at about 20° C. and 100% relative atmospheric humidity for 1 day.
(§7) The plants are then placed in a greenhouse at about 21° C. and a relative atmospheric humidity of about 90%.
(§8) Evaluation is carried out 10 days after the inoculation. 0% means an efficacy which corresponds to that of the control, whereas an efficacy of 100% means that no infection is observed.

The next data set relates to Venturia inaequalis. Put plainly: Venturia test (apple)/protective. The following applies: 100 ppm active compound, protective, evaluation 10 days after inoculation. It counts as in vivo. On the procedure: Solvents: 24.5 parts by weight of acetone • 24.5 parts by weight of dimethylacetamide Emulsifier: 1 part by weight of alkylaryl polyglycol ether
as §6
To test for protective activity, young plants are sprayed with the active compound preparation at the stated application rate. After the spray coating has dried on, the plants are inoculated with an aqueous conidia suspension of the apple scab pathogen Venturia inaequalis and then remain in an incubation cabin at about 20° C. and 100% relative atmospheric humidity for 1 day.
as §7, §8

Another data set has as its system DON/AcDON production. Put plainly: microbe, parasite or virus in culture. The class given is cell-based, Fusarium graminearum. The following applies: 7 days at 28° C.
In the next data set the test system is Fusarium graminearum. Description: microbe, parasite or virus in culture. It counts as cell-based.
The test system of the next data set is Leptosphaeria nodorum. Description: Leptosphaeria nodorum test (wheat)/protective. It counts as in vivo. How it is done:
as §1, §2
(§9) To produce a suitable preparation of active compounds, 1 part by weight of active compound is mixed with the stated amounts of solvent and emulsifier, and the concentrate is diluted with water to the desired concentration.
To test for protective activity, young wheat plants are sprayed with the active compound preparation at the stated application rate. 1 day after the treatment, the plants are inoculated with an aqueous spore suspension of Leptosphaeria nodorum and then remain at 100% rel. atmospheric humidity and 22° C. for 48 h. The plants are then placed in a greenhouse at 90% rel. atmospheric humidity and a temperature of 22° C.
Evaluation is carried out 7-9 days after the inoculation. 0% means an efficacy which corresponds to that of the control, whereas an efficacy of 100% means that no infection is observed.

Another data set has as its system Phytophthora infestans. The class given is in vivo.
The subject of the next data set is Sphaerotheca fuliginea. Description: Sphaerotheca test (cucumber)/protective. The class given is in vivo. On the procedure: as §1, §2, §9
To test for protective activity, young cucumber plants are sprayed with the active compound preparation at the stated application rate. 1 day after the treatment, the plants are inoculated with a spore suspension of Sphaerotheca fuliginea. The plants are then placed in a greenhouse at 70% rel. atmospheric humidity and a temperature of 23° C.
as §3

The nature of data set [1]: log P determination by HPLC retention times (alkan-2-one calibration).
Where [2] appears, read: 500 ppm active compound, tomato, protective, evaluation 7 days after inoculation.
[3] abbreviates: 500 ppm active compound, wheat, protective, evaluation 7-9 days after inoculation.
Setting [4] is: 500 ppm active compound, barley, protective, evaluation 7-9 days after inoculation.
Where [5] appears, read: 500 ppm active compound, cucumber, protective, evaluation 7 days after inoculation.
Where [6] appears, read: log P(HCOOH), HCOOH, preparation examples in the text.
Where [7] appears, read: log P, values marked [b] in Table 1.

In the case of `O=C(Nc1cc(-c2c(-c3ccccc3)nn3c2CCCC3)ccn1)c1ccsc1` [Example 51], the efficacy in % in the data set with Alternaria solani (in vivo) is on record as 95%; in the data set with Botrytis cinerea it was 99%; with Pyrenophora teres (in vivo) it was 90%; in the data set on Uromyces appendiculatus, 86%; with Venturia inaequalis, 74%. The “% inhibition of DON/AcDON at 50 μM” value in the data set with DON/AcDON production came to 100%. The “% inhibition of the fungal growth of Fusarium graminearum at 50 μM” value (shortened to “% inhibition of the fungal growth … at 50 μM”) in the data set with Fusarium graminearum was determined as 41%.

`CC(=O)Nc1cc(-c2c(-c3cccs3)nn3c2CCCC3)ccn1` [Example 87]: the efficacy in % with Alternaria solani (in vivo) is on record as 80%; with Botrytis cinerea, 100%; with Leptosphaeria nodorum (in vivo), 70%; with Phytophthora infestans (in vivo), 90%; with Pyrenophora teres (in vivo), 90%; in the data set on Sphaerotheca fuliginea (in vivo) it was 95%. The same compound yielded an efficacy in % in the data set with Uromyces appendiculatus of 93%.

As for `CCC(=O)Nc1cc(-c2c(-c3ccc(F)cc3)nn3c2CCOC3(C)C)ccn1` [Example 86], the efficacy in % in the data set with Alternaria solani (in vivo) was 90%; in the data set with Botrytis cinerea, 100%; in the data set with Leptosphaeria nodorum (in vivo), 70%; in the data set with Pyrenophora teres (in vivo), 100%; with Sphaerotheca fuliginea (in vivo), 100%; with Uromyces appendiculatus, 95%. The efficacy in % with Venturia inaequalis amounted to 95%.

For the compound `O=C(Cc1ccccc1)Nc1cc(-c2c(-c3ccccc3)nn3c2CCCC3)ccn1` [Example 35], the efficacy in % came out at 94% with Alternaria solani (in vivo); 96% in the data set on Botrytis cinerea; 90% in the data set with Leptosphaeria nodorum (in vivo); 80% in the data set on Phytophthora infestans (in vivo); 78% with Pyrenophora teres (in vivo); 95% in the data set on Venturia inaequalis.

By inhibition is commonly meant the drop in the measured response relative to a control, in per cent. The term chromatographic logP denotes a lipophilicity value derived from retention on a column. Lower therefore signals lower lipophilicity. For the compound `Fc1ccc(-c2nn3c(c2-c2ccncc2)CCCC3)cc1` [Example 2, 2-(4-Fluorophenyl)-3-(pyridin-4-yl)-4,5,6,7-tetrahydropyrazolo[1,5-a]pyridine], the efficacy in % in the data set with Alternaria solani (setting [2]) is 94%; in the data set on Botrytis cinerea, 100%; with Leptosphaeria nodorum (setting [3]), 80%; in the data set on Phytophthora infestans (setting [2]), 94%; with Pyrenophora teres (setting [4]), 95%; with Sphaerotheca fuliginea (setting [5]), 91%. This compound came in with an efficacy in % in the data set on Venturia inaequalis of 95%. The inhibition at 50 µM in the data set with DON/AcDON production (Fusarium graminearum, 168 h) is 100%; in the data set on Fusarium graminearum (Fusarium graminearum, 72 h, read-out: % inhibition of the fungal growth of Fusarium graminearum at 50 μM), 99%. Also, the chromatographic logP in data set [1] (setting [6]) came to 1.03; in [1] (log P, values marked [a] in Table 1), 1.03; in data set [1] (setting [7]), 2.43.

With `COC1CCCn2nc(-c3ccc(F)cc3)c(-c3ccncc3)c21` (stereo not drawn) [Example 85], the efficacy in % in the data set with Botrytis cinerea amounted to 100%; with Leptosphaeria nodorum (in vivo), 75%; in the data set on Phytophthora infestans (in vivo), 90%; with Pyrenophora teres (in vivo) it was 100%; in the data set on Sphaerotheca fuliginea (in vivo), 85%; with Uromyces appendiculatus, 85%.

Turning to `CC(C)C(=O)Nc1cc(-c2c(-c3ccc(F)cc3)nn3c2CCOC3)ccn1` [Example 91], the efficacy in % is recorded as 90% in the data set on Alternaria solani (in vivo); 100% in the data set on Botrytis cinerea; 78% in the data set on Leptosphaeria nodorum (in vivo); 95% in the data set on Pyrenophora teres (in vivo); 100% with Sphaerotheca fuliginea (in vivo); 95% in the data set on Uromyces appendiculatus. Also, the efficacy in % in the data set with Venturia inaequalis worked out at 95%.

Regarding `O=C(Nc1cc(-c2c(-c3cccs3)nn3c2CCCC3)ccn1)C1CC1` [Example 89], the efficacy in % in the data set with Alternaria solani (in vivo) was found to be 90%; with Botrytis cinerea it was 100%; in the data set on Leptosphaeria nodorum (in vivo) it was 80%; in the data set with Phytophthora infestans (in vivo), 90%; in the data set with Pyrenophora teres (in vivo) it was 95%; with Sphaerotheca fuliginea (in vivo), 100%. The efficacy in % was 95% in the data set with Uromyces appendiculatus and 94% in the data set on Venturia inaequalis.

For the compound `Fc1ccc(-c2nn3c(c2-c2ccncc2)CCC3)cc1` [Example 7], the efficacy in % amounted to 95% with Alternaria solani (in vivo); 95% in the data set with Botrytis cinerea; 95% with Phytophthora infestans (in vivo); 80% in the data set on Pyrenophora teres (in vivo); 90% in the data set on Sphaerotheca fuliginea (in vivo); 76% in the data set with Venturia inaequalis. In addition, the “% inhibition of DON/AcDON at 50 μM” value in the data set on DON/AcDON production is recorded as 99%. In addition, the “% inhibition of the fungal growth … at 50 μM” value in the data set with Fusarium graminearum is 100%.

Regarding `CC1CCc2c(-c3ccnc(NC(=O)C4CC4)c3)c(-c3ccc(F)cc3)nn21` (stereo not drawn) [Example 78], the efficacy in % in the data set on Botrytis cinerea turned out to be 100%; with Leptosphaeria nodorum (in vivo) it was 100%; in the data set with Pyrenophora teres (in vivo), 95%; in the data set on Sphaerotheca fuliginea (in vivo) it was 100%; in the data set on Uromyces appendiculatus it was 94%; in the data set on Venturia inaequalis it was 100%.

For `c1ccc(-c2nn3c(c2-c2ccncc2)CCCC3)cc1` [Example 9], the efficacy in % is 100% in the data set on Alternaria solani (in vivo); 93% in the data set on Botrytis cinerea; 95% in the data set with Leptosphaeria nodorum (in vivo); 90% in the data set on Phytophthora infestans (in vivo); 94% with Pyrenophora teres (in vivo); 86% with Sphaerotheca fuliginea (in vivo). Also, in the data set with Venturia inaequalis, the efficacy in % is 95%. Further, the “% inhibition of DON/AcDON at 50 μM” value with DON/AcDON production worked out at 99%. In the data set on Fusarium graminearum, the “% inhibition of the fungal growth … at 50 μM” value worked out at 100%.

As for `CC1CCc2c(-c3ccncc3)c(-c3ccc(F)cc3)nn21` (stereo not drawn) [Example 74], the efficacy in % with Alternaria solani (in vivo) was found to be 95%; in the data set with Botrytis cinerea it was 100%; with Leptosphaeria nodorum (in vivo), 88%; with Phytophthora infestans (in vivo), 90%; in the data set with Pyrenophora teres (in vivo), 100%; with Sphaerotheca fuliginea (in vivo), 93%. The efficacy in % in the data set on Venturia inaequalis came out at 95%.

Take `CC(C)Nc1cc(-c2c(-c3ccccc3)nn3c2CCC3)ccn1` [Example 70, 4-[2-(Phenyl)-5,6-dihydro-4H-pyrrolo[1,2-b]pyrazol-3-yl]-N-isopropylpyridine-2-amine]: the efficacy in % in the data set on Alternaria solani (setting [2]) was found to be 90%; in the data set on Leptosphaeria nodorum (setting [3]), 90%; with Phytophthora infestans (setting [2]), 95%; with Pyrenophora teres (setting [4]) it was 80%; in the data set with Sphaerotheca fuliginea (setting [5]), 94%; with Venturia inaequalis, 100%. The chromatographic logP in [1] (setting [6]) is 1.21; in data set [1] (setting [7]), 2.69.

On to `CC(C)Nc1cc(-c2c(-c3ccc(F)cc3)nn3c2CCC3)ccn1` [Example 52], for which the efficacy in % in the data set with Alternaria solani (in vivo) is on record as 90%; in the data set with Botrytis cinerea it was 78%; in the data set with Phytophthora infestans (in vivo) it was 95%; with Pyrenophora teres (in vivo), 80%; in the data set on Venturia inaequalis, 94%. Besides, in the data set with DON/AcDON production, the “% inhibition of DON/AcDON at 50 μM” value was 99%. In addition, the “% inhibition of the fungal growth … at 50 μM” value in the data set with Fusarium graminearum amounted to 19%.
